# Measurements reported in PubChem BioAssay (NCI).
#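 Protocol summary: plate cells (96-well), add compound at 5 concentrations, incubate 48 h, interpolate endpoints linearly. GI50: concentration for 50% inhibition of growth. TGI is the concentration that stops growth completely.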
# What was measured:
# Test in all cases: DTP human tumour cell line panel, 48 h
# CCRF-CEM leukemia = tested on: CCRF-CEM leukemia
# HS 578T breast = tested on: HS 578T breast
# MDA-MB-231 breast = tested on: MDA-MB-231 breast
# HT29 colon = tested on: HT29 colon
# M14 melanoma = tested on: M14 melanoma
# EKVX NSCLC = tested on: EKVX NSCLC
# BT-549 breast = tested on: BT-549 breast
# RPMI-8226 leukemia = tested on: RPMI-8226 leukemia
# UACC-62 melanoma = tested on: UACC-62 melanoma
# 786-0 renal = tested on: 786-0 renal
# T-47D breast = tested on: T-47D breast
# SN12C renal = tested on: SN12C renal
# OVCAR-3 ovarian = tested on: OVCAR-3 ovarian
# ACHN renal = tested on: ACHN renal
# HL-60(TB) leukemia = tested on: HL-60(TB) leukemia
# HCC-2998 colon = tested on: HCC-2998 colon
# HOP-92 NSCLC = tested on: HOP-92 NSCLC
# IGROV1 ovarian = tested on: IGROV1 ovarian
# U251 CNS = tested on: U251 CNS
# KM12 colon = tested on: KM12 colon
# MOLT-4 leukemia = tested on: MOLT-4 leukemia
# COLO 205 colon = tested on: COLO 205 colon
# SNB-19 CNS = tested on: SNB-19 CNS
# DU-145 prostate = tested on: DU-145 prostate
# NCI-H522 lung = tested on: NCI-H522 lung
# NCI-H460 lung = tested on: NCI-H460 lung
# LOX IMVI melanoma = tested on: LOX IMVI melanoma
# RXF 393 renal = tested on: RXF 393 renal
# SK-MEL-28 melanoma = tested on: SK-MEL-28 melanoma
# A498 renal = tested on: A498 renal
# SK-OV-3 ovarian = tested on: SK-OV-3 ovarian
# K-562 leukemia = tested on: K-562 leukemia
# MCF7 breast = tested on: MCF7 breast
# SNB-75 CNS = tested on: SNB-75 CNS
# SK-MEL-5 melanoma = tested on: SK-MEL-5 melanoma
# PC-3 prostate = tested on: PC-3 prostate
# SF-295 CNS = tested on: SF-295 CNS
# HCT-15 colon = tested on: HCT-15 colon
# OVCAR-4 ovarian = tested on: OVCAR-4 ovarian
# SF-268 CNS = tested on: SF-268 CNS
# OVCAR-8 ovarian = tested on: OVCAR-8 ovarian
# SF-539 CNS = tested on: SF-539 CNS
# NCI-H23 lung = tested on: NCI-H23 lung
# SK-MEL-2 melanoma = tested on: SK-MEL-2 melanoma
# HOP-62 NSCLC = tested on: HOP-62 NSCLC
# A549 NSCLC = tested on: A549 NSCLC
# OVCAR-5 ovarian = tested on: OVCAR-5 ovarian
# SR leukemia = tested on: SR leukemia
# SW-620 colon = tested on: SW-620 colon
# HCT-116 colon = tested on: HCT-116 colon
# UO-31 renal = tested on: UO-31 renal
# NCI/ADR-RES ovarian = tested on: NCI/ADR-RES ovarian
smiles,measurement,setting,value
COc1ccc(NC(=O)c2sc3nc4c(cc3c2N)CCCC4)cc1,GI50,CCRF-CEM leukemia,322 nM
same,TGI,CCRF-CEM leukemia,> 100000 nM
same,GI50,HS 578T breast,567 nM
same,TGI,HS 578T breast,> 100000 nM
same,GI50,MDA-MB-231 breast,5260 nM
same,TGI,MDA-MB-231 breast,> 100000 nM
same,GI50,HT29 colon,345 nM
same,TGI,HT29 colon,3360 nM
same,GI50,M14 melanoma,254 nM
same,TGI,M14 melanoma,1280 nM
same,GI50,EKVX NSCLC,1130 nM
same,TGI,EKVX NSCLC,> 100000 nM
same,GI50,BT-549 breast,410 nM
same,TGI,BT-549 breast,13900 nM
same,GI50,RPMI-8226 leukemia,484 nM
same,TGI,RPMI-8226 leukemia,12100 nM
same,GI50,UACC-62 melanoma,352 nM
same,TGI,UACC-62 melanoma,> 100000 nM
same,GI50,786-0 renal,360 nM
same,TGI,786-0 renal,30500 nM
same,GI50,T-47D breast,547 nM
same,TGI,T-47D breast,96900 nM
same,GI50,SN12C renal,1430 nM
same,TGI,SN12C renal,> 100000 nM
same,GI50,OVCAR-3 ovarian,336 nM
same,TGI,OVCAR-3 ovarian,3190 nM
same,GI50,ACHN renal,627 nM
same,TGI,ACHN renal,> 100000 nM
same,GI50,HL-60(TB) leukemia,252 nM
same,TGI,HL-60(TB) leukemia,624 nM
same,GI50,HCC-2998 colon,3600 nM
same,TGI,HCC-2998 colon,> 100000 nM
same,GI50,HOP-92 NSCLC,10600 nM
same,TGI,HOP-92 NSCLC,76300 nM
same,GI50,IGROV1 ovarian,929 nM
same,TGI,IGROV1 ovarian,> 100000 nM
same,GI50,U251 CNS,652 nM
same,TGI,U251 CNS,> 100000 nM
same,GI50,KM12 colon,612 nM
same,TGI,KM12 colon,82900 nM
same,GI50,MOLT-4 leukemia,442 nM
same,TGI,MOLT-4 leukemia,30500 nM
same,GI50,COLO 205 colon,876 nM
same,TGI,COLO 205 colon,6460 nM
same,GI50,SNB-19 CNS,1570 nM
same,TGI,SNB-19 CNS,> 100000 nM
same,GI50,DU-145 prostate,982 nM
same,TGI,DU-145 prostate,> 100000 nM
same,GI50,NCI-H522 lung,234 nM
same,TGI,NCI-H522 lung,772 nM
same,GI50,NCI-H460 lung,543 nM
same,TGI,NCI-H460 lung,19800 nM
same,GI50,LOX IMVI melanoma,686 nM
same,TGI,LOX IMVI melanoma,> 100000 nM
same,GI50,RXF 393 renal,452 nM
same,TGI,RXF 393 renal,4720 nM
same,GI50,SK-MEL-28 melanoma,15200 nM
same,TGI,SK-MEL-28 melanoma,> 100000 nM
same,GI50,A498 renal,237 nM
same,TGI,A498 renal,1730 nM
same,GI50,SK-OV-3 ovarian,1920 nM
same,TGI,SK-OV-3 ovarian,> 100000 nM
same,GI50,K-562 leukemia,309 nM
same,TGI,K-562 leukemia,> 100000 nM
same,GI50,MCF7 breast,348 nM
same,TGI,MCF7 breast,> 100000 nM
same,GI50,SNB-75 CNS,342 nM
same,TGI,SNB-75 CNS,11600 nM
same,GI50,SK-MEL-5 melanoma,355 nM
same,TGI,SK-MEL-5 melanoma,11000 nM
same,GI50,PC-3 prostate,822 nM
same,TGI,PC-3 prostate,> 100000 nM
same,GI50,SF-295 CNS,314 nM
same,TGI,SF-295 CNS,20200 nM
same,GI50,HCT-15 colon,471 nM
same,TGI,HCT-15 colon,> 100000 nM
same,GI50,OVCAR-4 ovarian,1980 nM
same,TGI,OVCAR-4 ovarian,> 100000 nM
same,GI50,SF-268 CNS,899 nM
same,TGI,SF-268 CNS,> 100000 nM
same,GI50,OVCAR-8 ovarian,2380 nM
same,TGI,OVCAR-8 ovarian,> 100000 nM
same,GI50,SF-539 CNS,372 nM
same,TGI,SF-539 CNS,6520 nM
same,GI50,NCI-H23 lung,2550 nM
same,TGI,NCI-H23 lung,> 100000 nM
same,GI50,SK-MEL-2 melanoma,369 nM
same,TGI,SK-MEL-2 melanoma,4690 nM
same,GI50,HOP-62 NSCLC,752 nM
same,TGI,HOP-62 NSCLC,> 100000 nM
same,GI50,A549 NSCLC,1180 nM
same,TGI,A549 NSCLC,> 100000 nM
same,GI50,OVCAR-5 ovarian,7280 nM
same,TGI,OVCAR-5 ovarian,> 100000 nM
same,GI50,SR leukemia,300 nM
same,TGI,SR leukemia,16300 nM
same,GI50,SW-620 colon,429 nM
same,TGI,SW-620 colon,> 100000 nM
same,GI50,HCT-116 colon,355 nM
same,TGI,HCT-116 colon,11000 nM
same,GI50,UO-31 renal,795 nM
same,TGI,UO-31 renal,> 100000 nM
same,GI50,NCI/ADR-RES ovarian,384 nM
same,TGI,NCI/ADR-RES ovarian,3850 nM
